Results from paper PMC8900257 (ACS chemical biology, 2019).
Where “and” joins values, the source holds several entries; their conditions need not be identical. Identical values can stand only once. Like-named read-outs stand apart in the source and are kept apart here.

Key:
M. tuberculosis H37Rv = experiment: M. tuberculosis growth inhibition; assay type: cell-based, Mycobacterium tuberculosis; conditions: for MIC: Mycobacterium tuberculosis, H37RV, read-out: Mycobacterium Growth inhibition, MIC (μM) tuberculosis, Table 2, this study
[1] = system: M. tuberculosis H37Rv fructose-bisphosphate aldolase (FBA); conditions: ref PubChem Bioassay AID 588726; cited from earlier work
M. tuberculosis [2] = conditions: Table 1; values deduced from ref PubChem Bioassay AID 1626; cited from earlier work
M. tuberculosis [3] = conditions: Table 1; nd = no detected effect; ref PubChem Bioassay AID 449762; cited from earlier work
NAD pool = NAD pool level in M. smegmatis, colorimetric detection kit; assay type: cell-based, Mycobacterium smegmatis
[4] = system: non-replicating M. smegmatis; experiment: Cell viability by CFU assay under carbon starvation; assay type: cell-based, Mycobacterium smegmatis; conditions: Mycolicibacterium smegmatis, 96 h, read-out: colony forming unit (CFU) reduction

SMILES	Enzyme inhibition (%) at 1 μM MtFBA [1]	Mycobacterium Growth inhibition MIC (μM) tuberculosis e (M. tuberculosis [3])	also measured
Cc1ccc(OCc2n(CC(=O)OC3CC(C)CCC3C(C)C)c3ccccc3[n+]2C)cc1 (stereo not drawn) [N2–10]	–	–	MIC (M. tuberculosis H37Rv): 19.7 µM
CCN(CC)CCNC(=O)c1cn(CC)c2cc(N3CCN(C(=O)c4ccco4)CC3)c(F)cc2c1=O [N1–30]	22.17%	–	Mycobacterium Growth inhibition MIC (μM) tuberculosis d (M. tuberculosis [2]): >100 µM
CCC(C)NC(=O)c1cn(CC)c2cc(N3CCN(C(=O)c4ccco4)CC3)c(F)cc2c1=O (stereo not drawn) [N1–2]	54.28%	50 µM	–
CCn1cc(C(=O)NCc2ccco2)c(=O)c2cc(F)c(N3CCN(C(=O)c4ccco4)CC3)cc21 [N1–29]	19.8%	<25 µM	Mycobacterium Growth inhibition MIC (μM) tuberculosis d (M. tuberculosis [2]): >10 µM
CCn1cc(C(=O)NCC(C)C)c(=O)c2cc(F)c(N3CCN(C(=O)c4ccco4)CC3)cc21 [N1–6]	11.37%	–	–
CCn1cc(C(=O)NCc2cccc(F)c2)c(=O)c2cc(F)c(N3CCN(C(=O)c4ccco4)CC3)cc21 [N1–13]	40% and 38.2%	25 µM	Mycobacterium Growth inhibition MIC (μM) tuberculosis d (M. tuberculosis [2]): 12.5 µM
CCN(CC)CCCNC(=O)c1cn(CC)c2cc(N3CCN(C(=O)c4ccco4)CC3)c(F)cc2c1=O [N1–31]	54.21%	>25 µM	–
CCCNC(=O)c1cn(CC)c2cc(N3CCN(C(=O)c4ccco4)CC3)c(F)cc2c1=O [N1–3]	79.9%	25 µM	–
C=CCNC(=O)c1cn(CC)c2cc(N3CCN(C(=O)c4ccco4)CC3)c(F)cc2c1=O [N1–4]	97.0%	25 µM	–
CCn1cc(C(=O)NCCC(C)C)c(=O)c2cc(F)c(N3CCN(C(=O)c4ccco4)CC3)cc21 [N1–7]	14.68%	>25 µM	–
CCn1cc(C(=O)NC(C)C)c(=O)c2cc(F)c(N3CCN(C(=O)c4ccco4)CC3)cc21 [N1–1]	54.81%	>25 µM	–
CCn1cc(C(=O)NCc2ccccc2)c(=O)c2cc(F)c(N3CCN(C(=O)c4ccco4)CC3)cc21 [N1–10]	20% and 20.43%	25 µM	Mycobacterium Growth inhibition MIC (μM) tuberculosis d (M. tuberculosis [2]): <10 µM
Cc1ccccc1OCc1n(CC(=O)OC2CC(C)CCC2C(C)C)c2ccccc2[n+]1C (stereo not drawn) [N2–9]	–	–	MIC (M. tuberculosis H37Rv): 38.5 µM
COc1ccc(-c2n(CC(=O)OC3CC(C)CCC3C(C)C)c3ccccc3[n+]2C)cc1 (stereo not drawn) [N2–7]	–	–	NAD pool depletion (NAD pool): rapid depletion of the NAD pool
CCn1cc(C(=O)NCc2ccncc2)c(=O)c2cc(F)c(N3CCN(C(=O)c4ccco4)CC3)cc21 [N1–16]	41.76%	–	Mycobacterium Growth inhibition MIC (μM) tuberculosis d (M. tuberculosis [2]): >100 µM
CC1CCC(C(C)C)C(OC(=O)Cn2c[n+](CC(=O)OC3CC(C)CCC3C(C)C)c3ccccc32)C1 (stereo not drawn) [N2–1]	–	–	MIC (M. tuberculosis H37Rv): 46.7 µM
CCCCNC(=O)c1cn(CC)c2cc(N3CCN(C(=O)c4ccco4)CC3)c(F)cc2c1=O [N1–5]	22.14%	>25 µM	–
CC1CCC(C(C)C)C(OC(=O)Cn2c(COc3ccccc3)[n+](C)c3ccccc32)C1 (stereo not drawn) [N2–8]	–	–	log reduction at 25 µM [4]: > 2; MIC (M. tuberculosis H37Rv): 21.2 µM
CCn1cc(C(=O)Nc2ncccc2O)c(=O)c2cc(F)c(N3CCN(C(=O)c4ccco4)CC3)cc21 [N1–20]	14.6%	–	–
COc1ccc(OCc2n(CC(=O)OC3CC(C)CCC3C(C)C)c3ccccc3[n+]2C)cc1 (stereo not drawn) [N2–11]	–	–	log reduction at 25 µM [4]: ≤ 4; NAD pool depletion (NAD pool; inhibitor at ~5× MIC added at log-phase, samples over 6 hours): rapid depletion of the NAD pool; MIC (M. tuberculosis H37Rv): 28 µM; Mycobacterium Growth inhibition, MIC (μM) tuberculosis (M. tuberculosis H37Rv; Table 2, this study): 28.2 µM
